Legend:
Format in all cases: functional
MDA-MB-231 = assay: Growth inhibition of human MDA-MB-231 cells incubated for 48 hrs by sulforhodamine B assay; details: MDA-MB-231, 48 h
ACHN = assay: Growth inhibition of human ACHN cells assessed as cell growth at 0.1 uM incubated for 48 hrs by sulforhodamine B assay relative to control; details: read-out: Activity
SF-268 = assay: Growth inhibition of human SF268 cells assessed as cell growth at 0.1 uM incubated for 48 hrs by sulforhodamine B assay relative to control; details: SF-268, 48 h, read-out: Activity
NCI/ADR-RES [1] = assay: Growth inhibition of human NCI-ADR-RES cells assessed as cell growth at 0.1 uM incubated for 48 hrs by sulforhodamine B assay relative to control; details: read-out: Activity
NCI/ADR-RES [2] = assay: Growth inhibition of human NCI-ADR-RES cells assessed as cell growth at 100 uM incubated for 48 hrs by sulforhodamine B assay relative to control; details: read-out: Activity
UO-31 [3] = assay: Growth inhibition of human UO31 cells assessed as cell growth at 0.1 uM incubated for 48 hrs by sulforhodamine B assay relative to control; details: UO-31, 48 h, read-out: Activity
RXF 393 [4] = assay: Growth inhibition of human RXF393 cells assessed as cell growth at 0.01 uM incubated for 48 hrs by sulforhodamine B assay relative to control; details: RXF 393, 48 h, read-out: Activity
TK-10 = assay: Growth inhibition of human TK10 cells incubated for 48 hrs by sulforhodamine B assay; details: TK-10, 48 h
NCI-H322M = assay: Growth inhibition of human NCI-H322M cells assessed as cell growth at 100 uM incubated for 48 hrs by sulforhodamine B assay relative to control; details: read-out: Activity
K562 = assay: Growth inhibition of human K562 cells assessed as cell growth at 0.1 uM incubated for 48 hrs by sulforhodamine B assay relative to control; details: K562, 48 h, read-out: Activity
CAKI-1 = assay: Growth inhibition of human Caki1 cells incubated for 48 hrs by sulforhodamine B assay; details: CAKI-1, 48 h
NCI-H460 [5] = assay: Growth inhibition of human NCI-H460 cells assessed as cell growth at 0.1 uM incubated for 48 hrs by sulforhodamine B assay relative to control; details: NCI-H460, 48 h, read-out: Activity
KM12 = assay: Growth inhibition of human KM12 cells assessed as cell growth at 0.1 uM incubated for 48 hrs by sulforhodamine B assay relative to control; details: KM12, 48 h, read-out: Activity
A498 = assay: Growth inhibition of human A498 cells assessed as cell growth at 0.01 uM incubated for 48 hrs by sulforhodamine B assay relative to control; details: A498, 48 h, read-out: Activity
UACC-62 = assay: Growth inhibition of human UACC62 cells incubated for 48 hrs by sulforhodamine B assay; details: UACC-62, 48 h
UO-31 [6] = assay: Growth inhibition of human UO31 cells assessed as cell growth at 100 uM incubated for 48 hrs by sulforhodamine B assay relative to control; details: UO-31, 48 h, read-out: Activity
NCI-H226 = assay: Growth inhibition of human NCI-H226 cells incubated for 48 hrs by sulforhodamine B assay; details: NCI-H226, 48 h
BT-549 = assay: Growth inhibition of human BT549 cells incubated for 48 hrs by sulforhodamine B assay; details: BT-549, 48 h
NCI-H23 = assay: Growth inhibition of human NCI-H23 cells incubated for 48 hrs by sulforhodamine B assay; details: NCI-H23, 48 h
CCRF-CEM = assay: Growth inhibition of human CCRF-CEM cells incubated for 48 hrs by sulforhodamine B assay
RXF 393 [7] = assay: Growth inhibition of human RXF393 cells assessed as cell growth at 100 uM incubated for 48 hrs by sulforhodamine B assay relative to control; details: RXF 393, 48 h, read-out: Activity
A549 = assay: Growth inhibition of human A549/ATCC cells assessed as cell growth at 1 uM incubated for 48 hrs by sulforhodamine B assay relative to control; details: A549, 48 h, read-out: Activity
NCI-H522 = assay: Growth inhibition of human NCI-H522 cells assessed as cell growth at 100 uM incubated for 48 hrs by sulforhodamine B assay relative to control; details: NCI-H522, 48 h, read-out: Activity
786-0 = assay: Growth inhibition of human 786-0 cells assessed as cell growth at 0.01 uM incubated for 48 hrs by sulforhodamine B assay relative to control; details: 786-0, 48 h, read-out: Activity
HT-29 = assay: Growth inhibition of human HT-29 cells assessed as cell growth at 0.1 uM incubated for 48 hrs by sulforhodamine B assay relative to control; details: HT-29, 48 h, read-out: Activity
SK-OV-3 = assay: Growth inhibition of human SKOV3 cells assessed as cell growth at 0.1 uM incubated for 48 hrs by sulforhodamine B assay relative to control; details: SK-OV-3, 48 h, read-out: Activity
OVCAR-8 = assay: Growth inhibition of human OVCAR8 cells assessed as cell growth at 0.01 uM incubated for 48 hrs by sulforhodamine B assay relative to control; details: OVCAR-8, 48 h, read-out: Activity
NCI-H460 [8] = assay: Growth inhibition of human NCI-H460 cells incubated for 48 hrs by sulforhodamine B assay; details: NCI-H460, 48 h
[9] = read-out: LC50 (the source's name)
[10] = read-out: pLC50 (the source's name) (converted)

## c1ccc2c3c([nH]c2c1)C(c1ccc(C2NCCc4c2[nH]c2ccccc42)cc1)NCC3 (racemic)
MDA-MB-231; read-out: GI50
  GI50: 2.96 µM
MDA-MB-231; [9]
  CC50: 3.64 µM
MDA-MB-231; read-out: TGI
  TGI: 9.36 µM
MDA-MB-231; read-out: pGI50 (converted)
  GI50: 0.295 µM
MDA-MB-231; [10]
  CC50: 3.63 µM
ACHN
  growth at 0.1 µM: 97%
SF-268
  growth at 0.1 µM: 89%
NCI/ADR-RES [1]
  growth at 0.1 µM: 93%
NCI/ADR-RES [2]
  growth at 100 µM: -30%
UO-31 [3]
  growth at 0.1 µM: 74%
RXF 393 [4]
  growth at 0.01 µM: 101%
TK-10; read-out: GI50
  GI50: 1.98 µM
TK-10; [9]
  CC50: 8.44 µM
TK-10; read-out: TGI
  TGI: 4.09 µM
TK-10; read-out: pGI50 (converted)
  GI50: 2 µM
TK-10; [10]
  CC50: 8.51 µM
TK-10; read-out: pTGI (converted)
  TGI: 4.07 µM
NCI-H322M
  growth at 100 µM: 96%
K562
  growth at 0.1 µM: 114%
CAKI-1; read-out: GI50
  GI50: 1.66 µM
CAKI-1; [9]
  CC50: 9.82 µM
CAKI-1; read-out: TGI
  TGI: 4.03 µM
CAKI-1; read-out: pGI50 (converted)
  GI50: 1.66 µM
CAKI-1; [10]
  CC50: 9.77 µM
CAKI-1; read-out: pTGI (converted)
  TGI: 4.07 µM
NCI-H460 [5]
  growth at 0.1 µM: 106%
KM12
  growth at 0.1 µM: 95%
A498
  growth at 0.01 µM: 73%
UACC-62; [9]
  CC50: 5.15 µM
UACC-62; read-out: pGI50 (converted)
  GI50: 0.741 µM
UACC-62; [10]
  CC50: 5.13 µM
UACC-62; read-out: pTGI (converted)
  TGI: 2.14 µM
UO-31 [6]
  growth at 100 µM: -96%
NCI-H226; read-out: GI50
  GI50: 1.96 µM
NCI-H226; [9]
  CC50: 9.1 µM
NCI-H226; read-out: TGI
  TGI: 4.23 µM
NCI-H226; read-out: pGI50 (converted)
  GI50: 1.95 µM
NCI-H226; [10]
  CC50: 9.12 µM
NCI-H226; read-out: pTGI (converted)
  TGI: 4.27 µM
BT-549; read-out: GI50
  GI50: 1.11 µM
BT-549; [9]
  CC50: 5.37 µM
BT-549; read-out: TGI
  TGI: 2.44 µM
BT-549; read-out: pGI50 (converted)
  GI50: 11.2 µM
BT-549; [10]
  CC50: 53.7 µM
BT-549; read-out: pTGI (converted)
  TGI: 24.5 µM
NCI-H23; read-out: GI50
  GI50: 1.65 µM
NCI-H23; [9]
  CC50: 6.83 µM
NCI-H23; read-out: TGI
  TGI: 3.36 µM
NCI-H23; read-out: pGI50 (converted)
  GI50: 1.66 µM
NCI-H23; [10]
  CC50: 6.76 µM
NCI-H23; read-out: pTGI (converted)
  TGI: 3.39 µM
CCRF-CEM; [9]
  CC50: 1.22 µM
CCRF-CEM; read-out: pGI50 (converted)
  GI50: 0.457 µM
CCRF-CEM; [10]
  CC50: 12.3 µM
CCRF-CEM; read-out: pTGI (converted)
  TGI: 2.04 µM
RXF 393 [7]
  growth at 100 µM: -81%
A549
  growth at 1 µM: 56%
NCI-H522
  growth at 100 µM: 81%
786-0
  growth at 0.01 µM: 96%
HT-29
  growth at 0.1 µM: 103%
SK-OV-3
  growth at 0.1 µM: 95%
OVCAR-8
  growth at 0.01 µM: 101%
NCI-H460 [8]; read-out: GI50
  GI50: 2.21 µM
NCI-H460 [8]; [9]
  CC50: 9.12 µM
NCI-H460 [8]; read-out: TGI
  TGI: 4.49 µM
NCI-H460 [8]; read-out: pGI50 (converted)
  GI50: 0.219 µM
NCI-H460 [8]; [10]
  CC50: 0.912 µM
NCI-H460 [8]; read-out: pTGI (converted)
  TGI: 4.47 µM

## c1ccc2[nH]c(-c3ccc(-c4nccc5c4[nH]c4ccccc45)cc3)nc2c1
MDA-MB-231; read-out: GI50
  GI50: 2.39 µM
MDA-MB-231; read-out: TGI
  TGI: 5.83 µM
MDA-MB-231; read-out: pGI50 (converted)
  GI50: 2.4 µM
MDA-MB-231; [10]
  CC50: > 100 µM
MDA-MB-231; read-out: pTGI (converted)
  TGI: 5.89 µM
ACHN
  growth at 0.1 µM: 98%
SF-268
  growth at 0.1 µM: 96%
NCI/ADR-RES [1]
  growth at 0.1 µM: 98%
NCI/ADR-RES [2]
  growth at 100 µM: 45%
UO-31 [3]
  growth at 0.1 µM: 91%
RXF 393 [4]
  growth at 0.01 µM: 106%
TK-10; read-out: GI50
  GI50: 2.07 µM
TK-10; [9]
  CC50: 1.08 µM
TK-10; read-out: TGI
  TGI: 4.59 µM
TK-10; read-out: pGI50 (converted)
  GI50: 2.09 µM
TK-10; [10]
  CC50: 10.7 µM
TK-10; read-out: pTGI (converted)
  TGI: 4.57 µM
NCI-H322M
  growth at 100 µM: 75%
K562
  growth at 0.1 µM: 108%
CAKI-1; read-out: GI50
  GI50: 2.41 µM
CAKI-1; [9]
  CC50: 3.68 µM
CAKI-1; read-out: TGI
  TGI: 7.11 µM
CAKI-1; read-out: pGI50 (converted)
  GI50: 2.4 µM
CAKI-1; [10]
  CC50: 37.2 µM
CAKI-1; read-out: pTGI (converted)
  TGI: 7.08 µM
NCI-H460 [5]
  growth at 0.1 µM: 110%
KM12
  growth at 0.1 µM: 96%
A498
  growth at 0.01 µM: 96%
UACC-62; read-out: GI50
  GI50: 1.6 µM
UACC-62; [9]
  CC50: 7.62 µM
UACC-62; read-out: TGI
  TGI: 3.49 µM
UACC-62; read-out: pGI50 (converted)
  GI50: 1.58 µM
UACC-62; [10]
  CC50: 7.59 µM
UACC-62; read-out: pTGI (converted)
  TGI: 3.47 µM
UO-31 [6]
  growth at 100 µM: 82%
NCI-H226; read-out: GI50
  GI50: 2.27 µM
NCI-H226; [9]
  CC50: 9.73 µM
NCI-H226; read-out: TGI
  TGI: 5.56 µM
NCI-H226; read-out: pGI50 (converted)
  GI50: 2.29 µM
NCI-H226; [10]
  CC50: 97.7 µM
NCI-H226; read-out: pTGI (converted)
  TGI: 5.5 µM
BT-549; read-out: GI50
  GI50: 2.12 µM
BT-549; [9]
  CC50: 7.21 µM
BT-549; read-out: TGI
  TGI: 5.42 µM
BT-549; read-out: pGI50 (converted)
  GI50: 2.14 µM
BT-549; [10]
  CC50: 72.4 µM
BT-549; read-out: pTGI (converted)
  TGI: 5.37 µM
NCI-H23; [9]
  CC50: 8.7 µM
NCI-H23; read-out: pGI50 (converted)
  GI50: 3.47 µM
NCI-H23; [10]
  CC50: 87.1 µM
NCI-H23; read-out: pTGI (converted)
  TGI: 17.8 µM
CCRF-CEM; read-out: GI50
  GI50: 3.12 µM
CCRF-CEM; [9]
  CC50: > 1 µM
CCRF-CEM; read-out: TGI
  TGI: 9.12 µM
CCRF-CEM; read-out: pGI50 (converted)
  GI50: 3.09 µM
CCRF-CEM; [10]
  CC50: > 100 µM
CCRF-CEM; read-out: pTGI (converted)
  TGI: 9.12 µM
RXF 393 [7]
  growth at 100 µM: 68%
A549
  growth at 1 µM: 96%
NCI-H522
  growth at 100 µM: 46%
786-0
  growth at 0.01 µM: 89%
HT-29
  growth at 0.1 µM: 98%
SK-OV-3
  growth at 0.1 µM: 98%
OVCAR-8
  growth at 0.01 µM: 100%
NCI-H460 [8]; read-out: GI50
  GI50: 3.03 µM
NCI-H460 [8]; [9]
  CC50: > 1 µM
NCI-H460 [8]; read-out: TGI
  TGI: 9.8 µM
NCI-H460 [8]; read-out: pGI50 (converted)
  GI50: 3.02 µM
NCI-H460 [8]; [10]
  CC50: > 100 µM
NCI-H460 [8]; read-out: pTGI (converted)
  TGI: 9.77 µM
